Assay results from publication PMC9230573 (Frontiers in Pharmacology, 2022).
Where “and” joins values, the source holds several entries; their conditions need not be identical. Equal values may be shown once. Entries after “also recorded” stand apart in the source; their conditions may differ. Where a SMILES comes first, the peptide text is derived from it. Bridges are numbered along the chain shown (N, C = ends).

Tests used:
rat α3β2 nAChR = rat α3β2 nAChR (Rattus norvegicus, UniProt P04757+P12390); test: cell-based
[1] = system: GABABR-coupled Cav2.2 channels (human GABAB receptor R1 + R2 subunits and Cav2.2); type: cell-based; conditions: SEM
[2] = system: L-type (Cav1.2) calcium channels; type: cell-based
[3] = system: T-type (Cav3.2) calcium channels; type: cell-based
[4] = system: voltage-gated sodium channels in DRG neurons; type: cell-based, rat
[5] = system: voltage-gated potassium channels in DRG neurons; type: cell-based, rat
rat PNL pain model = conditions: in vivo
rat CCI pain model = conditions: in vivo
locomotor activity = conditions: rat, in vivo

Sequence of rat α3β2 nAChR (P04757 26-499 limits assumed): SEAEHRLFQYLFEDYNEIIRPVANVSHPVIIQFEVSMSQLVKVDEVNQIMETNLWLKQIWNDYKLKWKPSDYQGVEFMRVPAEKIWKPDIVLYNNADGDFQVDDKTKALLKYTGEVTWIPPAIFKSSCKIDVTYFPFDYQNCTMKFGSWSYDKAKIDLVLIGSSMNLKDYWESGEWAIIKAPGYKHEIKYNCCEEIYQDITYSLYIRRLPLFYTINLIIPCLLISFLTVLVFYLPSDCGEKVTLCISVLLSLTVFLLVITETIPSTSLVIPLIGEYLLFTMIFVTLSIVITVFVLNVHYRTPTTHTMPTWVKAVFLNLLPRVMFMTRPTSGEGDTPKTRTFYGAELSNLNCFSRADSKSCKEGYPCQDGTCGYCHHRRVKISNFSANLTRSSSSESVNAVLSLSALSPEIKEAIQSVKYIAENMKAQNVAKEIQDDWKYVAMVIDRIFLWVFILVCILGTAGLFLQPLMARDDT
Sequence of rat α3β2 nAChR (P12390 25-500 limits assumed): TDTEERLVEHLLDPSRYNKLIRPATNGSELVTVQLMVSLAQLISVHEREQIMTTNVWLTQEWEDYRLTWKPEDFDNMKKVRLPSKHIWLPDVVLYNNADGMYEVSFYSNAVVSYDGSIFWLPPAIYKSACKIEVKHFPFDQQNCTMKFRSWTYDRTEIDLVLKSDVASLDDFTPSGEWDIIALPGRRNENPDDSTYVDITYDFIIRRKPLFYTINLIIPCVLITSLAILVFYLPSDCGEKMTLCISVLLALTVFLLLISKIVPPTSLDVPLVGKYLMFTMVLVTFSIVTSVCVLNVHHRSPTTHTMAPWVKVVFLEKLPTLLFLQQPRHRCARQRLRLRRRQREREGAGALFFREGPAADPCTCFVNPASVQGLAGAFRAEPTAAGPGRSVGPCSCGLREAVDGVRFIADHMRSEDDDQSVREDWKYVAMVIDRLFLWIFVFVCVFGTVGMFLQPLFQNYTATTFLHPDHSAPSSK

CC[C@H](C)[C@@H]1NC(=O)[C@@H]2CCCN2C(=O)[C@@H]2CSSC[C@H](NC(=O)[C@@H](N)CC(N)=O)C(=O)N[C@@H](CSSC[C@@H](C(N)=O)NC(=O)[C@H](CC(N)=O)NC(=O)[C@H](Cc3ccccc3)NC(=O)[C@H](CCCNC(=N)N)NC(=O)[C@H](CO)NC(=O)[C@H](Cc3ccc(O)cc3)NC(=O)[C@H](CC(=O)O)NC1=O)C(=O)N[C@@H](CCSC)C(=O)N[C@@H](Cc1ccccc1)C(=O)N[C@@H](Cc1c[nH]cn1)C(=O)N[C@@H]([C@@H](C)O)C(=O)N2 [Vt1.27] (H-NCCMFHTCPIDYSRFNC-NH2; disulfide 2-8, 3-17)
Hillslope (rat α3β2 nAChR): -0.484 | IC50 (rat α3β2 nAChR): 1160 nM | percent inhibition of IBa at GABABR-coupled Cav2.2 channels [1]: 19 ± 2% | inhibition of L-type calcium channels (in words) [2]: did not significantly inhibit | inhibition of T-type calcium channels (in words) [3]: did not significantly inhibit | inhibition of voltage-gated sodium channels (in words) [4]: inactive; also recorded: did not significantly inhibit | inhibition of voltage-gated potassium channels (in words) [5]: inactive; also recorded: did not significantly inhibit | elevation value of the pain threshold (rat PNL pain model): 37.6 g | pain threshold (rat PNL pain model): 126.2 ± 9.16 g and 138.8 ± 23.6 g and 165.0 ± 21.4 g | increase in pain threshold (rat CCI pain model): 67.2 g and 40.0 g | pain threshold elevation percentage (rat CCI pain model): 56.4 ± 14.9% and 33.3 ± 15.3% | effect on locomotor activity (in words) (locomotor activity): did not affect locomotor activity

Vc1.1 [reference compound]
elevation value of the pain threshold (rat PNL pain model): 7.4 g | increased mechanical pressure threshold (elevation value of pain threshold) (rat PNL pain model): 71.2 g | pain threshold elevation percentage (rat CCI pain model): 44.3 ± 9.1% and 26.1 ± 10.0%
